Values of other authors as cited in US20060186374A1, “Hydrophobic propellant gas mixtures for producing insulating foams” (priority 2003, published 2006).

Conditions: octanol/water, decadic logarithm

Row | SMILES | log PO/W
1 | COC [DME, dimethyl ether] | 0.1
2 | CCC [Propane, propane] | 2.3
3 | FC(C(F)(F)F)C(F)(F)F [R227ea, 1,1,1,2,3,3,3-heptafluoropropane] | 2.5
4 | FC(F)CC(F)(F)F [R245fa, 1,1,1,3,3-pentafluoropropane] | 1.35
5 | CC(F)(F)CC(F)(F)F [R365mfc, 1,1,1,3,3-pentafluorobutane] | 1.6
6 | CC(C)C [i-butane] | 2.8

Further lines, results first:

Row | log PO/W | SMILES
7 | 1.06 | FCC(F)(F)F [R134a, 1,1,1,2-tetrafluoroethane]
8 | 0.75 | CC(F)F [R152a, 1,1-difluoroethane]
